What was measured:
[1] = Ketogenic effect after oral administration: β-hydroxybutyrate concentrations in rat plasma; format: in vivo, rat (male Sprague-Dawley); conditions: 300 mg/kg po; for Maximum increase of plasma concentration of β-hydroxybutyrate: versus vehicle baseline
Procedure: Male Sprague-Dawley rats (weight range 200-250 g) were obtained from Charles River, Margate, Kent. The rats were group housed in polypropylene cages at a temperature of 21 ±4° C. and 55 ±20% humidity and on a standard light/dark cycle. Animals had free access to a standard pelleted rat diet and tap water at all times. Animals were accustomed to these conditions for at least one week before experimentation.
Animals were killed by CO2 and blood (approx, 5 ml) was collected by cardiac puncture at various times after dosing. Blood was collected into EDTA-coated plasma collection tubes (Sarstedt 5 ml K2E tubes) and kept on ice prior to centrifugation. Tubes were centrifuged in an Eppendorf 570R centrifuge at 4° C. for 5 minutes at 2500 rpm (1000 g). Following plasma separation, extreme care was taken to avoid contamination with red blood cells and samples were re-centrifuged as necessary. Plasma samples were initially frozen on dry ice and transferred to a −75° C. freezer until required for analysis.
Sodium DL-β-hydroxybutyrate (H-6501 Lot 111K2618) was obtained from Sigma. A stock solution of β-bydroxybutyrate (40 mM DL racemate equivalent to 20 mM D-isomer) was prepared in 0.9% saline solution, kept at 4° C. and used to generate appropriate dilutions for an assay standard curve.
Commercial clinical assay kits for the determination of D-β-hydroxybutyrate were obtained from Random Laboratories (Antrim, UK). Kits were obtained in two pack sizes (Ranbut RB1007: 10×10 ml and RB1008: 10×50 ml) but were otherwise identical. Each kit contained a standard solution of 1 mM D-β-hydroxybutyrate that was assayed every time to confirm the assay was performing correctly. The kit relies on measuring the appearance of NADH via the activity of β-hydroxybutyrate dehydrogenase measured as an increase of OD340 nm. An alkaline pH is necessary to drive the reaction equilibrium towards the production of NADH and acetoacetate.
The protocol supplied with the Ranbut kits was for a discrete (cuvette-based) spectrophotometric assay, so the protocol was modified for suitability with a 96-well microplate format using blank, flat-bottomed microplates (Greiner PS 655101 Lot 98 35 01). Assays were performed in triplicate using a sample volume of10 μl to each well for the standards and usually 20 μl for plasma samples (though this was varied for some experiments). Standard dilutions and samples were pipetted a single plate at a time and preincubated at 37° C. for 15 minutes in the sample compartment of a Molecular Devices VERSAMAX tunable microplate reader. The appropriate volume of assey reagent was reconstituted, according to instructions, using distilled water and preincubated at 37° C. for 15 minutes using a static water bath. The assay plate was ejected and the reaction started by adding rapidly 250 μl of reagent to each well (avoiding air bubbles). The plate was reloaded, mixed and then the change in OD340 nm followed in kinetic mode with a reading at every 15 seconds for a total of 2 minutes. The reaction rate was then determined from the OD increase over a suitable 1 minute period, after allowing a necessary period for the reaction rate to settle. The rate between 45 seconds and 105 seconds was used as the default measuring period, though occasionally a different period was used as necessary (e.g. if an aberrant reading was obtained at one of these time-points).
For analysis of spectrophotometric rate assays, linear regression analysis to the standard curve was used followed by interpolation of unknown values (GraphPad Prism 3.0) For comparison of treatment groups with vehicle, multiple 2-tailed T-tests were used and p<0.05 was taken to indicate statistical significance.

[2] = Procedure: Control animals received the appropriate vehicle (deionized water at 1 ml/kg) via the same route.

| Compound | Time at which the maximum increase of plasma β-hydroxybutyrate was observed [1] | Time by which plasma β-hydroxybutyrate returned to control values [1] | Time until which plasma β-hydroxybutyrate plateaued at the maximum level [1] | Level of plasma β-hydroxybutyrate at 1 h ([1]; 1 h after dosing) | Maximum increase of plasma concentration of β-hydroxybutyrate [1] | Solubility in deionized water and nature of the solution ([2]; deionized water, dosing solution for gavage) | Solubility in water ([2]; isolated product (syrup)) |
| --- | --- | --- | --- | --- | --- | --- | --- |
| C[C@@H](O)CC(=O)[O-].[Na+] [KTX 0101, sodium (R)-3-hydroxybutyrate] | 15 min | ≤ 2 h | 30 min | still significantly (P<0.05) elevated | 0.4 mM | – | – |
| CC(=O)CCOC(=O)C[C@@H](C)OC(=O)C[C@@H](C)OC(=O)C[C@@H](C)O [KTX 0204, 2-keto-butan-4-ol ester of (R)-3-hydroxybutyrate triolide] | 30 min | ≤ 1 h | – | – | 0.25 mM | mostly soluble in deionized water and produced a cloudy and stable solution | water-soluble |
